Like-named read-outs stand apart in the source and are kept apart here.

These results are taken from article PMC11062922 (Nature Chemical Biology, 2023).

For one assay, the target named is T1, AKT1 (Homo sapiens, UniProt P31749).
T1 construct: endogenous in cells
Kind of assay: Kinobeads competition binding: AKT1. Conditions: target AKT1. The text has this: Supplement 41589_2023_1459_MOESM4_ESM.xlsx, sheet "CATDS matrix" | column: AKT1

For another assay, the target named is T2, NQO1 (Homo sapiens, UniProt P15559).
T2 construct: endogenous in cells
Kind of assay: Kinobeads competition binding: NQO1. As to conditions: target NQO1. The text has this:
Supplement 41589_2023_1459_MOESM4_ESM.xlsx, sheet "CATDS matrix" | column: NQO1

Another assay relates to COX5A. Kind of assay: Kinobeads competition binding: COX5A.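 Further: share of total target engagement due to this protein at one drug concentration.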 Also on record: species or system human. Conditions: target COX5A.
The test system of the next assay is NAT10. Kind of assay: Kinobeads competition binding: NAT10. Also on record: species or system human. Conditions: target NAT10.
Another assay deals with T3, CSNK1G3 (Homo sapiens, UniProt Q9Y6M4).
T3 construct: endogenous in cells
Kind of assay: Kinobeads competition binding: CSNK1G3.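 Further: share of total target engagement due to this protein at one drug concentration.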 As to conditions: target CSNK1G3. The text has this: Supplement 41589_2023_1459_MOESM4_ESM.xlsx, sheet "CATDS matrix" | column: CSNK1G3

The next assay relates to FECH. Kind of assay: Kinobeads competition binding: FECH. As to conditions: target FECH. Also on record: species or system human.
A further assay has as its system MDN1. Kind of assay: Kinobeads competition binding: MDN1. More on the design: species or system human. Conditions: target MDN1.
A further assay addresses T4, HCK (Homo sapiens, UniProt P08631).
T4 construct: endogenous in cells
Kind of assay: Kinobeads competition binding: HCK. Conditions: target HCK. The text has this:
Supplement 41589_2023_1459_MOESM4_ESM.xlsx, sheet "CATDS matrix" | column: HCK

The test system of the next assay is ATR. Kind of assay: Kinobeads competition binding: ATR. Conditions: target ATR. Also on record: species or system human.
The target in a further assay is T5, PKN1 (Homo sapiens, UniProt Q16512).
T5 construct: a mixture of lysates from five cancer cell lines; endogenous in cells
Kind of assay: Kinobeads competition binding: PKN1.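 Further: share of total target engagement due to this protein at one drug concentration.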 As to conditions: target PKN1. The text has this:
Supplement 41589_2023_1459_MOESM4_ESM.xlsx, sheet "CATDS matrix" | column: PKN1

The next assay concerns the target PKN3 (Homo sapiens, UniProt Q6P5Z2). Kind of assay: Kinobeads full dose-response competition binding: PKN3.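 On all read-outs here: inhibitor pre-incubated 45 min at 4 °C in cell lysate (5 mg/ml protein), then competed against Kinobeads ε pulldown for 30 min, bound kinase quantified by nano LC–MS/MS.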 More on the design: endogenous in cells. As to conditions: for Relative Intensity 0.3nM: 0.3nM compound; for Relative Intensity 0.3nM / Relative Intensity 1nM / Relative Intensity 3nM / Relative Intensity 10nM / Relative Intensity 30nM / Relative Intensity 100nM / Relative Intensity 300nM / Relative Intensity 1000nM: DMSO = 1; for Relative Intensity 1nM: 1nM compound; for Relative Intensity 3nM: 3nM compound; for Relative Intensity 10nM: 10nM compound; for Relative Intensity 30nM: 30nM compound; for Relative Intensity 100nM: 100nM compound; for Relative Intensity 300nM: 300nM compound; for Relative Intensity 1000nM: 1000nM compound; for EC50: eight-dose curve fit.

[1] abbreviates: Gene Name PKN3, EC50 with Correction, doses in nM, read-out: apparent Kd.
The mark [2] stands for this setting: Kinobeads full dose-response, read-out: Kdapp PKN3.

For `CN(C)C/C=C/C(=O)Nc1cc2c(Nc3ccc(F)c(Cl)c3)ncnc2cc1O[C@H]1CCOC1` [Afatinib], the CATDS at AKT1, at NQO1, with COX5A, with NAT10, at CSNK1G3 and in the assay with FECH was 0 throughout. The CATDS in the assay with MDN1, at HCK, in the assay on ATR and on PKN1 was 0 in each case.
For the molecule `CCn1c(-c2nonc2N)nc2c(C#CC(C)(C)O)nc(OCCN)cc21` [GSK902056A], on PKN3 (Gene Name PKN3), the “Relative Intensity 0.3nM” value was determined as 1.0043, the “Relative Intensity 1nM” value is listed as 0.9527, the “Relative Intensity 3nM” value was found to be 0.8181 and the “Relative Intensity 10nM” value came to 0.5011. For the same molecule, on PKN3 (Gene Name PKN3), the “Relative Intensity 30nM” value was 0.201, the “Relative Intensity 100nM” value turned out to be 0, the “Relative Intensity 300nM” value amounted to 0 and the “Relative Intensity 1000nM” value was 0. Moreover, the Kd on PKN3 (setting [1]) worked out at 10.2 nM. On PKN3 (Gene Name PKN3, doses in nM), this molecule had an EC50 of 10.2 nM. Besides, on PKN3 (setting [2]), the Kd is 10 nM.
For the molecule `CCn1c(-c2nonc2N)nc2c(C#CC(C)(C)O)nc(OCCNC)cc21` [GSK949675A], at PKN3 (Gene Name PKN3), the “Relative Intensity 0.3nM” value was 1.302, the “Relative Intensity 1nM” value amounted to 1.271, the “Relative Intensity 3nM” value is reported as 1.02 and the “Relative Intensity 10nM” value turned out to be 1.139. Moreover, on PKN3 (Gene Name PKN3), the “Relative Intensity 30nM” value turned out to be 0.7655, the “Relative Intensity 100nM” value came out at 0.7191, the “Relative Intensity 300nM” value is on record as 0 and the “Relative Intensity 1000nM” value is given as 0. Further, the Kd on PKN3 (setting [1]) worked out at 89.8 nM. Also, it took 89.8 nM to reach a half-maximal effect at PKN3 (Gene Name PKN3, doses in nM) (EC50). The Kd at PKN3 (setting [2]) turned out to be 90 nM.
As to `NCc1ccc(-c2nc(-c3ccncc3)c(-c3ccc(Cl)c(O)c3)[nH]2)cc1` [SB-476429-A], at PKN3 (Gene Name PKN3), the “Relative Intensity 0.3nM” value worked out at 1.299, the “Relative Intensity 1nM” value is recorded as 1.281, the “Relative Intensity 3nM” value turned out to be 1.311 and the “Relative Intensity 10nM” value stood at 1.076. Moreover, on PKN3 (Gene Name PKN3), the “Relative Intensity 30nM” value was determined as 0.6326, the “Relative Intensity 100nM” value is 0.3718, the “Relative Intensity 300nM” value was determined as 0 and the “Relative Intensity 1000nM” value amounted to 0. For the same molecule, on PKN3 (setting [1]), the Kd was determined as 38.4 nM. The molecule also registered an EC50 on PKN3 (Gene Name PKN3, doses in nM) of 38.4 nM. In addition, the Kd on PKN3 (setting [2]) amounted to 38 nM.

The term EC50 denotes the concentration needed to bring the measured effect to its halfway point. A higher EC50 goes with lower potency in that assay.
